According to EP4219453A1 (Sichuan Kelun-Biotech Biopharmaceutical Co., Ltd., priority 2020, dated 2022):
“And” between values parts separate entries of the source, which are not always exact repeats. Equal entries are not always repeated. Where two headings read alike, the source gives them in different places.

Assays:
CYP3A4 = biological target: T1, CYP3A4 (Homo sapiens, UniProt P08684); test: CYP enzyme inhibition test, P450-Glo CYP3A4 Screening System; assay type: in vitro ADME; settings: Luciferin-IPA 3 µM
T1 construct: purchased Promega
T1 sequence (P08684 whole entry): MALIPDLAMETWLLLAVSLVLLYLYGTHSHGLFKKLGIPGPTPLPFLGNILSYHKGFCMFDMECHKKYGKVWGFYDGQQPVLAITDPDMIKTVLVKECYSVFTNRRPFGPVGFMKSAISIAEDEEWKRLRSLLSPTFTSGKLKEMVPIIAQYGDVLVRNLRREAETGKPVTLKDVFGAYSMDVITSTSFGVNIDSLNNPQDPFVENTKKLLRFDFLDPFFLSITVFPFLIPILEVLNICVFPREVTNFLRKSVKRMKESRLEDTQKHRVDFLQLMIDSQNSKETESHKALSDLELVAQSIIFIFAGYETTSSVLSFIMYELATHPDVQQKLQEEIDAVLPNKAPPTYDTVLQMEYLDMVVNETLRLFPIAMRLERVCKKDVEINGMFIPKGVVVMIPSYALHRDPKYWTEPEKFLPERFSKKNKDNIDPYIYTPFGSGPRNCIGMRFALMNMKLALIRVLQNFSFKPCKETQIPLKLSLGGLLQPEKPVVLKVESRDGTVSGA
Protocol: (§1) Test Example 5: CYP enzyme (Cytocrome P450) inhibition test
(§2) • 1. Test system: • P450-Glo™ CYP1A2 Screening System (Promega); • P450-Glo™ CYP2D6 Screening System (Promega); • P450-Glo™ CYP3A4 Screening System (Promega). • 2. Test instrument: BMG PHERAstar FS Luminescent. • 3. Test method: The test was carried out according to the kit instructions, and the steps were as follows: 3.1. Inhibition of CYP1A2:
(§3) Test group: The test compound of different concentration was added to the microplate, Luciferin-IPA (3 µM), K3PO4 (100 mM) and CYP3A4 (2 nM) were added to each well, and pre-incubated at room temperature for 10 min, followed by an addition of the NADPH regeneration system, and reacted at room temperature for 30 min, an equal volume of detection buffer was added at last, and incubated at room temperature for 20 min, and then chemiluminescence detection was performed.
(§4) Negative control group: The experimental method was the same as that of the test group, but the test compound was not added.
Blank control group: The experimental method was the same as that of the test group, but the test compound was not added, and CYP3A4 Membrance (2 nM) was used instead of CYP3A4.
(§5) The median inhibitory concentration (IC50) or range of the compound was estimated according to the inhibition rate of CYP enzymes at different concentrations: IC50 = X × (1 - percent inhibition rate (%)) / percent inhibition rate (%), wherein X is the test concentration of the compound.

CYP2D6 = biological target: T2, CYP2D6 (Homo sapiens, UniProt P10635); test: CYP enzyme inhibition test, P450-Glo CYP2D6 Screening System; assay type: in vitro ADME; settings: Luciferin-ME EGE 3 µM
T2 construct: purchased Promega
T2 sequence (P10635 whole entry): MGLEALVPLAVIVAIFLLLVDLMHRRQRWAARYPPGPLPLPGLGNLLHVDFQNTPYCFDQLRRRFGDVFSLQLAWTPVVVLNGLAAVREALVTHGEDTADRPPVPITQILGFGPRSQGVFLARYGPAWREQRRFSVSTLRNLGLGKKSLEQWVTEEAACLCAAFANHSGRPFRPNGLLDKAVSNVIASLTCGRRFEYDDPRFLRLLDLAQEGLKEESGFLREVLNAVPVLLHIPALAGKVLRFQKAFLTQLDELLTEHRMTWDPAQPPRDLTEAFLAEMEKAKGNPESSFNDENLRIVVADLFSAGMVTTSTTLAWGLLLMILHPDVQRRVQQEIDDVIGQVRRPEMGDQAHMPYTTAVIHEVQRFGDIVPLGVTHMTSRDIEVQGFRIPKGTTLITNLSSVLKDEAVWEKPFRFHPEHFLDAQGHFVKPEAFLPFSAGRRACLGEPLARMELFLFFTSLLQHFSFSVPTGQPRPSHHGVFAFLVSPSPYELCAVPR
Protocol: as §1, §2
as §3, with “the microplate, and Luciferin-ME EGE (3 µM),” for “the microplate, Luciferin-IPA (3 µM),”, “mM) and CYP2D6 (5 nM) were” for “mM) and CYP3A4 (2 nM) were”, “reacted at 37°C for 30” for “reacted at room temperature for 30”
as §4
Blank control group: The experimental method was the same as that of the test group, but the test compound was not added, and CYP2D6 Membrance (5 nM) was used instead of CYP2D6.
as §5

[1] = Pharmacokinetics (PK) study in Balb/c mice; assay type: in vivo; settings: female Balb/c mice; for F: PO 10 mg/kg compared with IV 1 mg/kg
Protocol: Test Example 6: Pharmacokinetics (PK) study in Balb/c mice
The example compounds were administered to female Balb/c mice via intravenous injection (IV) and gastric perfusion (PO), respectively, and their pharmacokinetic properties were investigated. The administered doses for IV and PO were 1 mg/kg and 10 mg/kg, respectively. The solvent for IV was 5% DMSO + 5% Solutol (15-hydroxystearic acid polyethylene glycol ester) + 90% normal saline, the solvent for PO was 0.5% MC ([…] methylcellulose). Whole blood samples were collected at various time points after IV and PO administration, and subjected to EDTA-K2 anticoagulation before test.
Whole blood samples were processed by precipitating proteins and then subjected to LC-MS/MS analysis. The pharmacokinetic parameters were calculated by the non-compartmental model using WinNonlin 6.3 software, and the results were shown in Table 6 below. Table 6. Pharmacokinetic parameters of compounds in whole blood in mice

TGFβR2 = TGFβR2 (Homo sapiens, UniProt P37173); test: In vitro enzymatic activity inhibition test (TGFβR2), ADP-Glo Kinase Detection Kit; assay type: biochemical; settings: MBP substrate, calculated from percent inhibition at 1000nM, 100nM, 10nM
Chain of TGFβR2 (P37173 23-567): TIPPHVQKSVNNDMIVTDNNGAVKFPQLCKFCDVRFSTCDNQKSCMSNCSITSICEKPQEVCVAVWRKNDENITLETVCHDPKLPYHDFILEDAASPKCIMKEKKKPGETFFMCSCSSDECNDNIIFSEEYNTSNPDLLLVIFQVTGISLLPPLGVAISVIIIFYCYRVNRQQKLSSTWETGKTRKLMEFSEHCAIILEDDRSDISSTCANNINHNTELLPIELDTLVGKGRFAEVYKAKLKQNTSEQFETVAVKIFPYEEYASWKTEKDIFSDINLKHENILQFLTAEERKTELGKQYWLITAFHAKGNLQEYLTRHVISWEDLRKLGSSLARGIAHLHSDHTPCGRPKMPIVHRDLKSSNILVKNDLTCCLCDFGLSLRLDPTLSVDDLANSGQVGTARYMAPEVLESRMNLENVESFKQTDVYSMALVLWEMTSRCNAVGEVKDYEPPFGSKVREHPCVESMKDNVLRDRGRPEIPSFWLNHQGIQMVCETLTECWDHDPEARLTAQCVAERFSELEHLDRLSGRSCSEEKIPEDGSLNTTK
Protocol: Test Example 2: In vitro enzymatic activity inhibition test (TGFβR2).
Experimental method: According to the instructions of ADP-Glo™ Kinase Detection Kit (Promega), the inhibitory effect of the compounds of the present invention on the enzymatic activity of TGFβR2 was determined, and the steps were as follows: TGFβR2 enzyme were pre-incubated with different concentrations of test compounds (1000nM, 100nM, 10nM) at 30°C for 30 min, myelin basic protein (MBP) and adenosine triphosphate (ATP) were added to initiate the reaction. The incubation was performed at 30°C for 3 h, followed by an addition of ADP-Glo™ reagent and incubated at room temperature for 90 min, kinase detection reagent was then added. The chemiluminescence signal values were detected after incubation at room temperature for another 30 min.
When the percent inhibition was between 30% and 80%, the median inhibitory concentration (IC50) or range of the compound was calculated according to the following formula: IC50 = X × (1 - percent inhibition rate (%)) / percent inhibition rate (%), wherein X is the concentration of the compound at which the inhibition rate is between 30% and 80%.

[2] = PO, 10 mg/kg, whole blood, listed as Example VI
[3] = mouse, IV, 1 mg/kg, whole blood
[4] = mouse, IV, 1 mg/kg, whole blood, read-out: Cmax
[5] = mouse, PO, 10 mg/kg, whole blood
[6] = mouse, PO, 10 mg/kg, whole blood, read-out: Cmax

Row | Compound | IC50 (CYP3A4) [µM] | IC50 (CYP2D6) [µM] | F [1] | T1/2 ([1]; PO, 10 mg/kg, whole blood) [min] | AUC(0-t) [1, 3] [ng·h/mL] | clearance [1, 3] [mL/min/kg] | Cmax [1, 4] [ng/mL] | AUC(0-t) [1, 5] [ng·h/mL] | half-life [1, 5] [min] | Cmax [1, 6] [ng/mL] | IC50 (TGFβR2) [nM] | other results
1 | Cc1cccc(-n2nc3c(c2-c2ccn4nccc4c2)CCC3)n1 [Example 4, 5-[2-(6-methylpyridin-2-yl)-2,4,5,6-tetrahydrocyclopenteno [c]pyrazol-3-yl]pyrazolo[1,5-a]pyridine] | > 10 | > 10 |  |  |  |  |  |  |  |  |  | 
2 | Cc1cccc(-n2nc3c(c2-c2ccn4ncc(C(N)=O)c4c2)CCC3)n1 [Example 6, 5-[2-(6-methylpyridin-2-yl)-2,4,5,6-tetrahydrocyclopenteno[c]pyrazol-3-yl]pyrazolo[1,5-a]pyridine-3-carboxamide] |  |  | 61.4±9.5% | 27.6 ± 11.4 |  |  |  |  |  |  |  | IC50 (CYP3A4; 30 min): > 10 µM; IC50 (CYP2D6; 30 min): > 10 µM; AUClast ([1]; IV, 1 mg/kg, whole blood): 578 ng·h/mL and 578 ± 4 ng·h/mL; Cl ([1]; IV, 1 mg/kg, whole blood): 28.4 mL/min/kg and 28.4 ± 0.3 mL/min/kg; Cmax ([1]; IV, 1 mg/kg, whole blood): 1163 ng/mL and 1163 ± 58 ng/mL; F ([1]; listed as Example VI): 61.4%; AUClast ([1]; PO, 10 mg/kg, whole blood): 3586 ± 563 ng·h/mL; Cmax ([1]; PO, 10 mg/kg, whole blood): 7440 ± 226 ng/mL; AUClast [1, 2]: 3586 ng·h/mL; Cmax [1, 2]: 7440 ng/mL; T1/2 [1, 2]: 27.6 min
3 | CNc1cc(-c2ccn3ncc(C(N)=O)c3c2)n(-c2cccc(C)n2)n1 [Example 8, 5-(3-(methylamino)-1-(6-methylpyridin-2-yl)-1H-pyrazol-5-yl)pyrazolo[1,5-a]pyridine-3-carboxamide] | > 10 | > 10 | 98.1% and 98.1±15.0% | 108 ± 21 | 458 | 35 | 917 | 4360 | 108 | 6270 | > 1000 | 
4 | Cc1cccc(-n2nc(NC(C)c3ccc(F)cc3)cc2-c2ccn3ncc(C(N)=O)c3c2)n1 (stereo not shown) [Example 10, 5-(3-(1-(4-fluorophenyl)ethylamino)-1-(6-methylpyridin-2-yl)-1H-pyrazol-5-yl)pyridino[1,5-a]pyridine-3-carboxamide] | > 10 | > 10 |  |  |  |  |  |  |  |  | > 1000 | 

Further lines, with some results ahead:

Row | IC50 (CYP3A4) [µM] | IC50 (CYP2D6) [µM] | F [1] | T1/2 ([1]; PO, 10 mg/kg, whole blood) [min] | AUC(0-t) [1, 3] [ng·h/mL] | clearance [1, 3] [mL/min/kg] | Cmax [1, 4] [ng/mL] | AUC(0-t) [1, 5] [ng·h/mL] | half-life [1, 5] [min] | Cmax [1, 6] [ng/mL] | IC50 (TGFβR2) [nM] | Compound | other results
5 | > 10 | > 10 |  |  |  |  |  |  |  |  | 593 ± 129 | Cc1cccc(-n2nc(NCc3ccc(F)cc3)cc2-c2ccn3ncc(C(N)=O)c3c2)n1 [Example 11, 5-(3-(4-fluorobenzylamino)-1-(6-methylpyridin-2-yl)-1H-pyrazol-5-yl)pyrazolo[1,5-a]pyridine-3-carboxamide] | 
6 | > 10 | > 10 | 52.1% and 52.1±2.6% | 31.2 ± 10.8 | 572 | 29.3 | 862 | 3040 | 31.2 | 5920 | > 1000 | Cc1cccc(-n2nccc2-c2ccn3ncc(C(N)=O)c3c2)n1 [Example 12, 5-(1-(6-methylpyridin-2-yl)-1H-pyrazol-5-yl)pyrazolo[1,5-a]pyridine-3-carboxamide] | 
